For this data set the following is noted: Liquid, Ebulliometric method (Recirculating still).

± gives the expanded uncertainty stated by the source.

A word on the vapor or sublimation pressure: it is the pressure of vapour in equilibrium with the condensed phase. For the compound `C` [methane], the “vapor or sublimation pressure” value turned out to be 88.2 ± 1.4 kPa (110.01 K); 112.74 ± 1.4 kPa (112.98 K); 132.11 ± 1.4 kPa (114.99 K); 134.08 ± 1.3 kPa (115.07 K); 153.92 ± 1.4 kPa (117 K); 178.11 ± 1.5 kPa (118.99 K). Also, the “vapor or sublimation pressure” value is, setting by setting: (120.11 K) 194.65 ± 1.3 kPa; (120.96 K) 204.78 ± 1.5 kPa; (123.01 K) 235.61 ± 1.6 kPa; (130.15 K) 374.77 ± 1.4 kPa; (135.09 K) 496.11 ± 1.4 kPa.

`N#N` [nitrogen]: the “vapor or sublimation pressure” value reads like this: (110.01 K) 1466.7 ± 6 kPa; (112.98 K) 1735.2 ± 7 kPa; (114.99 K) 1936 ± 7.8 kPa; (117 K) 2153.3 ± 8.7 kPa; (118.99 K) 2385.7 ± 9.6 kPa; (120.96 K) 2633.9 ± 11 kPa. Also, the “vapor or sublimation pressure” value (123.01 K) turned out to be 2913 ± 12 kPa.

The values above are taken from the NIST ThermoML archive (doi:10.1021/je201299u).
